Experimental data as given in publication PMC8040265, “A polysaccharide utilization locus from the gut bacterium Dysgonomonas mossii encodes functionally distinct carbohydrate esterases” (The Journal of Biological Chemistry, 2021).

Target: T1, DmCE1B_ct (Dysgonomonas mossii, UniProt F8X1N1)
T1 construct: gene HMPREF9456_02279; dimer; IMAC purified from E. coli BL21(DE3)
Experiment: X-ray crystal structure of soaked crystal, […] Å
Format: binding
Settings: crystal soak with saturating MFA, 0.1 M Tris pH 8, 25% w/v PEG 6000; one MFA at edge of active site groove, one at dimer interface

T1 sequence (F8X1N1 294-656): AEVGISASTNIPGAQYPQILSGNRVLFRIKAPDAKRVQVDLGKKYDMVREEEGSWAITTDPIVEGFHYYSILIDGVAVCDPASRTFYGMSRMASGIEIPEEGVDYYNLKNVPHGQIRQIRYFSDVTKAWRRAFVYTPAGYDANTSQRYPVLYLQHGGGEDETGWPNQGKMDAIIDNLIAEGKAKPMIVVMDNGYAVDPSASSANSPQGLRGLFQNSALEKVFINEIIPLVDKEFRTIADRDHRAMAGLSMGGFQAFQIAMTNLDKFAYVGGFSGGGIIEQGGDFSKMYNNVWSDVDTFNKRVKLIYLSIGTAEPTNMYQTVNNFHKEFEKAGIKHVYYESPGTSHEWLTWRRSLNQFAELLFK

COC(=O)/C=C/c1ccc(O)c(OC)c1 [MFA]
X-ray crystal structure of soaked crystal, 1.41 Å: Two MFA molecules were observed and modeled (Fig. S15A)
